Data reported in PMC2688486, “Xylose reductase from Pichia stipitis with altered coenzyme preference improves ethanolic xylose fermentation by recombinant Saccharomyces cerevisiae” (Biotechnology for Biofuels, 2009).
Where a chain is given by its changes, count along the chain named. Names and notes keep the numbering of the source.

B1: P. stipitis XR (xylose reductase, XYL1) (Scheffersomyces stipitis CBS 6054) (protein)
chain: MPSIKLNSGYDMPAVGFGCWKVDVDTCSEQIYRAIKTGYRLFDGAEDYANEKLVGAGVKKAIDEGIVKREDLFLTSKLWNNYHHPDNVEKALNRTLSDLQVDYVDLFLIHFPVTFKFVPLEEKYPPGFYCGKGDNFDYEDVPILETWKALEKLVKAGKIRSIGVSNFPGALLLDLLRGATIKPSVLQVEHHPYLQQPRLIEFAQSRGIAVTAYSSFGPQSFVELNQGRALNTSPLFENETIKAIAAKHGKSPAQVLLRWSSQRGIAIIPKSNTVPRLLENKDVNSFDLDEQDFADIAKLDINLRFNDPWDWDKIPIFV
notes: native full-length XYL1 from plasmid pY7, chromosomally integrated in S. cerevisiae TMB 3044 (gre3 deleted); crude cell extract
B2: P. stipitis XR (xylose reductase, XYL1) (Scheffersomyces stipitis CBS 6054; K270R) (protein)
chain: B1 chain with K270R
notes: as for B1
B3: P. stipitis XR (xylose reductase, XYL1) (Scheffersomyces stipitis CBS 6054; K270M) (protein)
chain: B1 chain with K270M
notes: as for B1

How the values were obtained:
[1] = target: T1, P. stipitis XR (xylose reductase, XYL1) (Scheffersomyces stipitis, UniProt P31867); assay: NAD(P)H absorbance at […] nm, initial rates fitted to compulsory-order ternary-complex equation; format: biochemical; details: crude extract, xylose co-substrate varied, pH 7.0 triethanolamine, 30°C; kinetic dissociation constant; read-out: KiA
T1 construct: native full-length XYL1 from plasmid pY7, chromosomally integrated in S. cerevisiae TMB 3044 (gre3 deleted); crude cell extract

[2] = target: T2, P. stipitis XR (xylose reductase, XYL1) (Scheffersomyces stipitis, UniProt P31867, K270R); assay: as above; format: biochemical; details: crude extract, xylose co-substrate varied, pH 7.0 triethanolamine, 30°C; kinetic dissociation constant; read-out: KiA
T2 construct: native full-length XYL1 from plasmid pY7, chromosomally integrated in S. cerevisiae TMB 3044 (gre3 deleted); crude cell extract

[3] = target: T3, P. stipitis XR (xylose reductase, XYL1) (Scheffersomyces stipitis, UniProt P31867, K270M); assay: as above; format: biochemical; details: crude extract, xylose co-substrate varied, pH 7.0 triethanolamine, 30°C; kinetic dissociation constant; read-out: KiA
T3 construct: native full-length XYL1 from plasmid pY7, chromosomally integrated in S. cerevisiae TMB 3044 (gre3 deleted); crude cell extract

[4] = substrate: NC(=O)C1=CN([C@@H]2O[C@H](COP(=O)(O)OP(=O)(O)OC[C@H]3O[C@@H](n4cnc5c(N)ncnc54)[C@H](O)[C@@H]3O)[C@@H](O)[C@H]2O)C=CC1; assay: cells, lysate or membranes; format: biochemical, Scheffersomyces stipitis; details: crude extract, xylose co-substrate varied, pH 7.0 triethanolamine, 30°C, varied: cofactor
[5] = substrate: NC(=O)C1=CN([C@@H]2O[C@H](COP(=O)(O)OP(=O)(O)OC[C@H]3O[C@@H](n4cnc5c(N)ncnc54)[C@H](OP(=O)(O)O)[C@@H]3O)[C@@H](O)[C@H]2O)C=CC1; assay: cells, lysate or membranes; format: biochemical, Scheffersomyces stipitis; details: crude extract, xylose co-substrate varied, pH 7.0 triethanolamine, 30°C, varied: cofactor

T2 sequence (P31867 whole entry K270R): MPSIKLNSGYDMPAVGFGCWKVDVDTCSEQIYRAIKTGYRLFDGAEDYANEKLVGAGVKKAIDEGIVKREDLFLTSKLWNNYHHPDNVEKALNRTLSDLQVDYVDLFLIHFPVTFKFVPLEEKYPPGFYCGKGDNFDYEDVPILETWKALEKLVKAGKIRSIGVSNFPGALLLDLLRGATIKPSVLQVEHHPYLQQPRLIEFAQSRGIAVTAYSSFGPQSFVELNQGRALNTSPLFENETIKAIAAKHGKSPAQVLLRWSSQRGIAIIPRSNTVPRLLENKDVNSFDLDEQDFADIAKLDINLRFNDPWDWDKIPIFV
T3 sequence (P31867 whole entry K270M): as the sequence (P31867 whole entry K270R) above, with R270M counted along it

Row | Molecule | Kd [1] [µM] | Kd [2] [µM] | Kd [3] [µM] | Km [4] [µM] | Km [5] [µM]
1 | NC(=O)C1=CN([C@@H]2O[C@H](COP(=O)(O)OP(=O)(O)OC[C@H]3O[C@@H](n4cnc5c(N)ncnc54)[C@H](O)[C@@H]3O)[C@@H](O)[C@H]2O)C=CC1 [NADH] | 25.9 ± 11.7 | 57.4 ± 34.9 |  |  | 
2 | NC(=O)C1=CN([C@@H]2O[C@H](COP(=O)(O)OP(=O)(O)OC[C@H]3O[C@@H](n4cnc5c(N)ncnc54)[C@H](OP(=O)(O)O)[C@@H]3O)[C@@H](O)[C@H]2O)C=CC1 [NADPH] | 1.4 ± 1.2 | 22.9 ± 17.6 | 293 ± 169 |  | 
3 | B1 |  |  |  | 28.7 ± 5.4 | 1.0 ± 0.6
4 | B2 |  |  |  | 62.8 ± 18.7 | 25.8 ± 9.1
5 | B3 |  |  |  |  | 290 ± 78.6
